# According to patent publication US4988706A (priority 1988, dated 1991):
# Structures can show the parent of a compound that is named as a salt.
# Molecular target: muscarinic receptors (rat cerebral cortex)
# Assay: not given
# Assay type: binding, Hooded Lister rats
# Details: displacement of 0.27 nM 3H-QNB, rat cerebral cortex membranes, 50 mM tris pH 7.7, 37° C., 30 min
row,Compound,IC50 [µM]
1,"Nc1noc(C23CCCN(CC2)C3)n1 (racemic) [Example E2, (±) 5-(3-Amino-1,2,4-oxadiazol-5-yl)-1-azabicyclo-[3.2.11octane]",2
2,"FCc1noc(C23CCCN(CC2)C3)n1 (racemic) [Example E1, (±) 5-(3-Fluoromethyl-1,2,4-oxadiazol-5-yl)-1azabicyclo[3.2.l]octane oxalate salt]",0.9
3,"FCc1noc(C23CCN(CC2)C3)n1 [Example E5, 4-(3-Fluoromethyl-1,2,4-oxadiazol-5-yl)-1-azabicyclo[2.2.11heptane oxalate salt]",19.5
4,Nc1noc(C23CCN(CC2)C3)n1 [Example E4],2.25

# Molecular target: muscarinic receptors (rat cerebral cortex)
# Assay: Radio ligand binding: displacement of the muscarinic agonist 3H-Oxotremorine-M (3H-OXO-M)
# Design: species or system Hooded Lister rats
# Details: displacement of 2nM 3H-OXO-M, rat cerebral cortex membranes, 2 mM magnesium chloride, 50 mM tris pH 7.7, 37° C., 30 min
row,Compound,IC50 [µM]
1,"Nc1noc(C23CCCN(CC2)C3)n1 (racemic) [Example E2, (±) 5-(3-Amino-1,2,4-oxadiazol-5-yl)-1-azabicyclo-[3.2.11octane]",0.011
2,"FCc1noc(C23CCCN(CC2)C3)n1 (racemic) [Example E1, (±) 5-(3-Fluoromethyl-1,2,4-oxadiazol-5-yl)-1azabicyclo[3.2.l]octane oxalate salt]",0.0069
3,"FCc1noc(C23CCN(CC2)C3)n1 [Example E5, 4-(3-Fluoromethyl-1,2,4-oxadiazol-5-yl)-1-azabicyclo[2.2.11heptane oxalate salt]",0.14
4,Nc1noc(C23CCN(CC2)C3)n1 [Example E4],0.0325
